Reference: EP0596406B1, “Imidazo (1,2-a) Pyridines as bradykinin antagonists” (FUJISAWA PHARMACEUTICAL CO., LTD., priority 1992, dated 1994)
Where a name gives a salt, the structure may show the parent alone.

Biological target: T1, Bradykinin receptor (Cavia porcellus, UniProt O70526)
T1 construct: The ileum was removed and homogenized in buffer; from tissue; host or cells: guinea pig ileum, crude membrane suspension
T1 sequence (O70526 1-372): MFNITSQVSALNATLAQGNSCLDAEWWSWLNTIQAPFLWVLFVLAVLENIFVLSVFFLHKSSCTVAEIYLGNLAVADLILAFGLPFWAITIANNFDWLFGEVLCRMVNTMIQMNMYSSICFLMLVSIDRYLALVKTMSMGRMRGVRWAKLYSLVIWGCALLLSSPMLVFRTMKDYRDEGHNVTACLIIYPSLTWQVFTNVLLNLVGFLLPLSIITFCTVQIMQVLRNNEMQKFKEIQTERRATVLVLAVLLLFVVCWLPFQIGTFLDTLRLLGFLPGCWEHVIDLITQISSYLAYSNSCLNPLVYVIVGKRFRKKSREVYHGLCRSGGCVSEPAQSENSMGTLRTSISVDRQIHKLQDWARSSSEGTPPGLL
Assay: ^3H-Bradykinin receptor binding (crude guinea pig ileum membrane)
Set-up: species or system guinea pigs
Details: drug 1 x 10^-5M; ^3H-Bradykinin 0.06 nM; crude ileum membrane suspension; room temperature for 60 minutes; 10 µM
Protocol: (a) Crude ileum membrane preparation
Male Hartly strain guinea pigs were sacrificed by decapitation. The ileum was removed and homogenized in buffer (50 mM trimethylaminoethanesulfonic acid (TES), 1 mM 1,10-phenanthroline pH 6.8). The homogenate was centrifuged (1000 xg, 20 minutes) to remove tissue clumps and the supernatant was centrifuges (100,000 xg, 60 minutes) to yield a pellet. The pellet was resuspended in buffer (50 mM TES, 1 mM 1,10-phenanthroline, 140 mg/ℓ bacitracin, 1 mM dithiothreiol, 0.1 % bovine serum albumin pH 6.8) and homogenized with a glass-teflon homogenizer to yield suspension which was referred to as crude membrane suspension. The obtained membrane suspension was stored at -80°C until use.
(b) ^3H-Bradykinin binding to the membrane
The frozen crude membrane suspension was thawed. In binding assays, ^3H-Bradykinin (0.06 nM) and drug (1 x 10^-5M) were incubated with 50 µl of the membrane suspension at room temperature for 60 minutes in a final volume of 250 µl. Separation of receptor-bound from free ^3H-Bradykinin is achieved by immediate filtration under vacuum and washed three times with 5 ml of ice-cold buffer (50 mM Tris-HCl pH 7.5). Non-specific binding was defined as binding in the presence of 0.1 µM Bradykinin. The radioactivity retained on rinsed filters was determined by a liquid-scintillation counter.

Row | SMILES | Inhibition % of ^3H-Bradykinin binding (concentration : 1 x 10^-5M) [%]
1 | CCCNC(=O)NCC(=O)N(C)c1ccc(Cl)c(COc2cccn3c(Br)c(C)nc23)c1Cl.Cl [61-(51), 3-Bromo-8-[2,6-dichloro-3-[N-(N'-n-propylureidoacetyl)-N-methylamino]benzyloxy]-2-methylimidazo[1,2-a]pyridine hydrochloride] | 100
2 | Cc1nc2c(OCc3c(Cl)ccc(N(C)C(=O)CNC(=O)Nc4cccnc4)c3Cl)cccn2c1Br.Cl.Cl [61-(54), 3-Bromo-8-[2,6-dichloro-3-[N-[N'-(3-pyridyl)ureidoacetyl]-N-methylamino]benzyloxy]-2-methylimidazo[1,2-a]pyridine dihydrochloride] | 100

Same assay, conditions: drug 1 x 10^-5M; ^3H-Bradykinin 0.06 nM; crude ileum membrane suspension; room temperature for 60 minutes; read-out: Inhibition % of ^3H-Bradykinin binding (concentration : 1 x 10^-5M)

Row | SMILES | inhibition at 10 µM [%]
3 | CC(=O)N(C)c1ccc(Cl)c(COc2cccn3c(Br)c(C)nc23)c1Cl [61-(1), 3-Bromo-8-[2,6-dichloro-3-(N-acetyl-N-methylamino)benzyloxy]-2-methylimidazo[1,2-a]pyridine hydrochloride] | 95
4 | COCC(=O)NCC(=O)CC(=O)N(C)c1ccc(Cl)c(COc2cccn3c(Br)c(C)nc23)c1Cl [61-(16), 3-Bromo-8-[2,6-dichloro-3-[N-(methoxyacetylglycyl)acetyl-N-methylamino]benzyloxy]-2-methylimidazo[1,2-a]pyridine hydrochloride] | 100
5 | CC(=O)NCC(=O)NCC(=O)N(C)c1ccc(Cl)c(COc2cccn3c(Br)c(C)nc23)c1Cl [61-(18), 8-[3-[N-(Acetylglycylglycyl)-N-methylamino]-2,6-dichlorobenzyloxy]-3-bromo-2-methylimidazo[1,2-a]pyridine hydrochloride] | 97
6 | Cc1nc2c(OCc3c(Cl)ccc(N(C)C(=O)CNC(C)C)c3Cl)cccn2c1Br [61-(23), 3-Bromo-8-[2,6-dichloro-3-[N-(isopropylglycyl)-N-methylamino]benzyloxy]-2-methylimidazo[1,2-a]pyridine dihydrochloride] | 100
7 | Cc1nc2c(OCc3c(Cl)ccc(N(C)C(=O)CNC(=O)[C@H]4CCCN4)c3Cl)cccn2c1Br [Example 49, 3-Bromo-8-[2,6-dichloro-3-[N-(D-prolylglycyl)-N-methylamino]benzyloxy]-2-methylimidazo[1,2-a]pyridine dihydrochloride] | 100
8 | Cc1nc2c(OCc3c(Cl)ccc([N+](=O)[O-])c3Cl)cccn2c1Br [Example 60, 3-bromo-8-(2,6-dichloro-3-nitrobenzyloxy)-2-methylimidazo[1,2-a]pyridine hydrochloride] | 100

Now from value to molecule:

Row | inhibition at 10 µM [%] | SMILES
9 | 99 | CC(=O)NCC(=O)N(C)c1ccc(Cl)c(COc2cccn3c(Br)c(C)nc23)c1Cl [61-(5), 8-[3-[N-(Acetylglycyl)-N-methylamino]-2,6-dichlorobenzyloxy]-3-bromo-2-methylimidazo[1,2-a]pyridine hydrochloride]
10 | 100 | CCCC(=O)NCC(=O)N(C)c1ccc(Cl)c(COc2cccn3c(Br)c(C)nc23)c1Cl [61-(7), 3-Bromo-8-[3-[N-(butyrylglycyl)-N-methylamino]-2,6-dichlorobenzyloxy]-2-methylimidazo[1,2-a]pyridine hydrochloride]
11 | 98 | Cc1nc2c(OCc3c(Cl)ccc(N(C)C(=O)CNC(=O)c4ccccc4)c3Cl)cccn2c1Br [61-(11), 8-[3-[N-(Benzoylglycyl)-N-methylamino]-2,6-dichlorobenzyloxy]-3-bromo-2-methylimidazo[1,2-a]pyridine hydrochloride]
12 | 98 | Cc1nc2c(OCc3c(Cl)ccc(N(C)C(=O)CNC(=O)Cc4ccccc4)c3Cl)cccn2c1Br [61-(13), 3-Bromo-8-[2,6-dichloro-3-[N-(phenylacetylglycyl)-N-methylamino]benzyloxy]-2-methylimidazo[1,2-a]pyridine hydrochloride]
13 | 99 | CCNC(=O)NCC(=O)N(C)c1ccc(Cl)c(COc2cccn3c(Br)c(C)nc23)c1Cl [61-(28), 3-Bromo-8-[2,6-dichloro-3-[N-(N'-ethylureidoacetyl)-N-methylamino]benzyloxy]-2-methylimidazo[1,2-a]pyridine hydrochloride]
14 | 100 | Cc1nc2c(OCc3c(Cl)ccc(N(C)C(=O)CNC(=O)CN(C)C)c3Cl)cccn2c1Br [61-(41), 3-Bromo-8-[2,6-dichloro-3-[N-[(N,N-dimethylglycyl)glycyl]-N-methylamino]benzyloxy]-2-methylimidazo[1,2-a]pyridine dihydrochloride]
15 | 100 | Cc1nc2c(OCc3c(Cl)ccc(N(C)C(=O)CNC(=S)Nc4ccccc4)c3Cl)cccn2c1Cl [Example 47, 3-Chloro-8-[2,6-dichloro-3-[N-(N'-phenylthioureidoacetyl)-N-methylamino]benzyloxy]-2-methylimidazo[1,2-a]pyridine]

Same assay, conditions: read-out: Inhibition % of ^3H-Bradykinin binding (concentration : 1 x 10^-5M)

Row | SMILES | inhibition at 10 µM [%]
16 | Cc1nc2c(OCc3c(Cl)ccc(N(C)C(=O)CNC(=O)Oc4ccc([N+](=O)[O-])cc4)c3Cl)cccn2c1Br [40-(21), 3-Bromo-8-[2,6-dichloro-3-[N-(4-nitrophenoxycarbonylglycyl)-N-methylamino]benzyloxy]-2-methylimidazo[1,2-a]pyridine] | 97
